# Measurements: patent publication US20220409510A1, “Polypeptides And Methods For Improving Skin Conditions” (Interk Peptide Therapeutics Limited, priority 2018, published 2022)
# What was measured:
# [1] = test system: apoptotic cells in human skin explants; assay: Apoptotic sunburn cells in human skin explants after UV-irradiation; type: cell-based; details: 500 μM
# Experimental: FIGS. 14 and 15 illustrate the effect of the polypeptide IK34720 (SEQ ID NO: 3) on the number of apoptotic cells in human skin explants.
# Skin explants were cultured irradiated and treated as described above for CPD, and subsequent to treatment were stained and quantified as described for Example 6.
# [2] = test system: MM1418-C1 lightly pigmented melanoma cells; assay: Melanin content of melanoma cells after UVB radiation; type: cell-based; details: 10 μM for 24 hours prior to 2 kJ/m2 UVB; measured 24 hours later; vs untreated UVB cells; FIG. 20
# Experimental: The ability of the polypeptide RSKAKNPLYRRRRRRRRR to alter melanin production was examined.
# In brief, MM1418-C1 lightly pigmented melanoma cells were grown in 24 well culture plates and treated with 10 μM RSKAKNPLYRRRRRRRRR (“IK-3”) for 24 hours prior to being exposed to 2 kJ/m2 UVB radiation. Controls (not treated with RSKAKNPLYRRRRRRRRR) labelled “Con” and “UVB”, respectively, were exposed to either 0 or 2 kJ/m2 UVB radiation. Cell groups were returned to the incubator for 24 hours and then the levels of melanin and protein in the cells were measured spectrophotometrically. In each experiment triplicate samples were measured. Data shown in FIG. 19 indicate the average values±SEM (μg melanin/mg cell protein) exposed to 0 or 2 kJ/m2 UVB which had been pre-treated with 0 or 10 μM of RSKAKNPLYRRRRRRRRR 24 hours prior to being exposed to UVB radiation. The t-test (2-tailed) was used to determine statistical significance, *p<0.05, ***p<0.001.
# apoptotic keratinocytes = assay: Sunburn (apoptotic) cells in mouse skin after UV-irradiation; type: in vivo, Skh:hr1 hairless mice; details: topical 20, 100 or 200 ug in 100 uL immediately after UVR; FIG. 11
# Experimental: UV-induced DNA damage in the form of elevated CPDs can induce mutations in epidermal cells leading to the development of cancer cells. Reduction of CPDs through application of DNA repair enzymes prevents the risk of UV-induced skin cancer and reduce the level of apoptotic cells following UV-induced damage. The number of apoptotic skin cells following UV-irradiation was assessed in accordance with the following protocol.
# Female Skh:hr1 hairless mice were prepared, irradiated and biopsied according to the methods of Example 4. Prior to biopsy, and immediately after irradiation, mice were treated with either a base lotion vehicle (negative control), 11.4 pmol/cm2 of Calcitriol in vehicle (positive control) the polypeptide IK34720 (SEQ ID NO: 3) in water, at 20 ug, 100 ug or 200 ug in a total volume of 100 uL.
# Biopsies were taken from UV-irradiated dorsal skin 3 hrs post-UVR and fixed in Histochoice fixative (Amresco, Solon OH) for 6 h. Skin samples were paraffin-embedded and 5 micrometre sections were cut for all analyses. Sections (24 h after UV) were subjected to routine hematoxylin and eosin staining for visualization of sunburn cells. The stained sections were examined under a Zeiss-Axioplan light microscope at 40× magnification, and the number of sunburn cells per linear millimetre of skin section recorded.
# CREB-S133 = assay: CREB phosphorylation in primary keratinocytes after solar simulated UV-irradiation (western blot); type: cell-based; details: 0.1, 1 and 5 μM added immediately after ssUV, FIG. 3A
# Experimental: The influence of the polypeptide IK34720 (SEQ ID NO: 3) on CREB phosphorylation was assessed using the following protocol.
# Keratinocytes were harvested and cultured as previously described (Gupta et al., J Invest Dermatol, 2007, 127(3):707-215). Keratinocytes, (passages 1-5) from 3 independent donors were used in the experiments illustrated in FIG. 3.
# Positive control treatment (denoted “D” in FIG. 3) was prepared by solubilizing Calcitriol (1,25-dihydroxyvitamin D3 (1,25(OH)2D3)—Cayman Chemical, Mich., USA) in 100% spectroscopic ethanol (Merck, Darmstadt, Germany) and the final concentration was determined by spectroscopy (NanoDrop 2000, Thermo Fisher Scientific, Mass., USA). The polypeptide IK34720 (SEQ ID NO: 3) was solubilised in phosphate buffered saline (PBS) to a concentration of 1 mM at pH 7.2. A vehicle (denoted as “V” in FIG. 3) constituting 0.1% (v/v) spectroscopic ethanol and 0.1% (v/v) PBS was prepared for use as a negative control.
# Cultured cells were irradiated by solar simulated UV-irradiation (ssUV) using an Oriel 1000W xenon-arc lamp (Stratford, Conn., USA). Irradiation was administered at an energy level of 400 mJ/cm^2 for UVB and 3600 mJ/cm^2 for UVA (total 4000 mJ/cm^2), measured by an OL754 radiometer (Optronics Laboratories Inc., Orlando, Fla.). This dosage equates to approximately 4 min irradiation of the sun at 12 noon in October in Sydney, Australia. […]
sequence,measurement,setting,value
"RSKAKNPLYRRRRRRRRR [IK34720, 18-residue polypeptide: … with a C-terminal polyarginine region of 8 arginines]",number of apoptotic cells,"[1]; 3 hrs post UV-irradiation, FIG. 14",statistically significantly reduces the number of apoptotic cells
same,number of apoptotic cells,"[1]; 24 hrs post UV-irradiation, FIG. 15",statistically significantly reduces the number of apoptotic cells
same,melanin content of cells,[2],significantly decreased melanin content
same,number of apoptotic keratinocytes (sunburn cells),apoptotic keratinocytes,reduced the number of apoptotic keratinocytes
same,UV-induced phosphorylation of CREB S-133,CREB-S133,inhibits UV-induced phosphorylation of serine at position 133 of CREB
